Experimental data from patent US9458132B2, “Therapeutic compounds and compositions and their use as PKM2 modulators” (AGIOS PHARMACEUTICALS, INC., priority 2012, dated 2016).

How the values were obtained:
Format in all cases: biochemical
PKR WT = PKR WT (Homo sapiens, UniProt P30613); assay: PKR WT enzymatic assay AC50; settings: wild type PKR
Procedure: (§1) • PKR or PKR mutant enzyme solution was diluted in assay buffer. • 2 μL of test compound was added into wells first, and then 180 μL reaction mix was added. • Reactions mixture with test compound was assembled except for ADP, and plates were stored for 60 minutes at room temperature. • 20 uL ADP was added to start reaction at room temperature and reaction progress was measured as changes in absorbance at 340 nm wavelength at room temperature.
(§2) Test Compound Preparation: • Test compound stock was made at 100x concentration in 100% DMSO (10 mM) • 1 to 3 dilutions were made for 11 points (i.e. 50 μl of first concentration added to 100 μl 100% DMSO to yield 3.33 mM, 50 μl of this added to 100 μl DMSO to yield 1.11 mM, and so forth) • 1 to 100 dilution into assay (2 μl in 200 μl) yielded starting concentration of 100 μM, decreasing 3 fold for 11 points • Assay Buffer: 100 mM KCl, 50 mM Tris 7.5, 5 mM MgCl2, 1 mM DTT, 0.03% BSA • Reaction Mixture: PKR mutant enzyme: 80-400 ng/well; ADP: 0.22-1.65 mM; PEP: 0.1-0.5 mM; NADH:180 uM; LDH: 0.5 units (Sigma#59023); DTT: 1 mM; BSA: 0.03%.
(§3) A compound described herein was diluted with DMSO and tested at 1 μM concentration. The enzyme was diluted in 1× Buffer: (100 mM KCl, 50 mM Tris 7.5, 5 mM MgCl2, 1 mM DTT, 0.03% BSA). 2 μL of compound solution was first added into wells, and then 180 μL of enzyme solution was added. Assays were assembled except for ADP, and plates were stored for 60 minutes at RT. 20 μL ADP was added to start the assay and assay output was evaluated using OD340 at SpectraMax. The assay was run at room temperature. • Final concentration: PKR wt (100 ng/well), Tris pH 7.5 (50 mM), KCl (100 mM), MgCl2 (5 mM), ADP (0.48 mM), PEP (0.15 mM), NADH (180 μM), LDH (0.5 units, Sigma 59023), DTT (1 mM) and BSA (0.03%).

PKR R532W = PKR R532W (Homo sapiens, UniProt P30613, R532W); assay: PKR mutant assay, PKR R532W AC50; settings: mutant PKR R532W enzyme
Procedure: as §1, §2
as §3, with “R532W” for “wt”, “(0.36” for “(0.48”, “(0.1” for “(0.15”

PKR R510Q = PKR R510Q (Homo sapiens, UniProt P30613, R510Q); assay: PKR mutant assay, PKR R510Q AC50; settings: mutant PKR R510Q enzyme
Procedure: as §1
as §2, with “0.03%. […]” for “0.03%.”

PKR R510Q, sequence (P30613 whole entry R510Q): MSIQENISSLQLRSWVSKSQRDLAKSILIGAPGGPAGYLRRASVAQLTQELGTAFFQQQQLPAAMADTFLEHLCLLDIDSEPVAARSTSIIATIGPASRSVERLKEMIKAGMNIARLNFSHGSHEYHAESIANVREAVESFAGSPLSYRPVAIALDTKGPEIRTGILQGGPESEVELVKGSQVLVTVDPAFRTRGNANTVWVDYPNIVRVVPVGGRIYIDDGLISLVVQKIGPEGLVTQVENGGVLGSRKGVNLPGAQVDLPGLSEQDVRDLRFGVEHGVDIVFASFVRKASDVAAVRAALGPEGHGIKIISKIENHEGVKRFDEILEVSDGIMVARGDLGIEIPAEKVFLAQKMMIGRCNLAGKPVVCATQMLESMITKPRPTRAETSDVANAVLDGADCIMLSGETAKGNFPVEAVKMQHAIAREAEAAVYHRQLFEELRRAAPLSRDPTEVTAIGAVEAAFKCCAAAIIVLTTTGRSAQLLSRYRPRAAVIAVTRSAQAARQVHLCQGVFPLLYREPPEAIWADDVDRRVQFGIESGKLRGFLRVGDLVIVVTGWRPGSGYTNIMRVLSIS
PKR R532W, sequence (P30613 whole entry R532W): as the sequence (P30613 whole entry R510Q) above, with Q510R, R532W counted along it
PKR WT, sequence (P30613 whole entry): as the sequence (P30613 whole entry R510Q) above, with Q510R counted along it

Compound	AC50 (PKR WT) [µM]	AC50 (PKR R532W) [µM]	AC50 (PKR R510Q) [µM]
O=C(c1ccc(NS(=O)(=O)c2cccc3cccnc23)cc1)N1CC(O)(Cc2ccccn2)C1 [Compound 55, N-(4-(3-hydroxy-3-(pyridin-2-ylmethyl)azetidine-1-carbonyl)phenyl)quinoline-8-sulfonamide]	0.101 to 1	0.101 to 1	1.01 to 10
O=C(c1ccc(NS(=O)(=O)c2cccc(Cl)c2Cl)cc1)N1CC(O)(Cc2ccccc2)C1 [Compound 52, N-(4-(3-benzyl-3-hydroxyazetidine-1-carbonyl)phenyl)-2,3-dichlorobenzenesulfonamide]	1.01 to 10	1.01 to 10	> 10
O=C(c1ccc(NS(=O)(=O)c2cccc3cccnc23)c(F)c1)N1CC(O)(Cc2ccccc2)C1 [Compound 46, N-(4-(3-benzyl-3-hydroxyazetidine-1-carbonyl)-2-fluorophenyl)quinoline-8-sulfonamide]	0.101 to 1	0.101 to 1	1.01 to 10
O=C(c1ccc(NS(=O)(=O)c2cccc3cccnc23)cc1)N1CC(O)(CCO)C1 [Compound 38, N-(4-(3-hydroxy-3-(2-hydroxyethyl)azetidine-1-carbonyl)phenyl)quinoline-8-sulfonamide]	1.01 to 10	> 10	> 10
CC(O)CC1(O)CN(C(=O)c2ccc(NS(=O)(=O)c3cccc4cccnc34)cc2)C1 (stereo not drawn) [Compound 41, N-(4-(3-hydroxy-3-(2-hydroxypropyl)azetidine-1-carbonyl)phenyl)quinoline-8-sulfonamide]	1.01 to 10	1.01 to 10	> 10
O=C(c1ccc(NS(=O)(=O)c2cccc3cccnc23)cc1F)N1CC(O)(Cc2ccccc2)C1 [Compound 45, N-(4-(3-benzyl-3-hydroxyazetidine-1-carbonyl)-3-fluorophenyl)quinoline-8-sulfonamide]	0.101 to 1	0.101 to 1	1.01 to 10
CCC1(O)CN(C(=O)c2ccc(NS(=O)(=O)c3cccc4cccnc34)cc2)C1 [Compound 34, N-(4-(3-ethyl-3-hydroxyazetidine-1-carbonyl)phenyl)quinoline-8-sulfonamide]	1.01 to 10	1.01 to 10	> 10
O=C(c1ccc(NS(=O)(=O)c2cccc3cccnc23)cc1)N1CC(O)(Cc2cccc(F)n2)C1 [Compound 54, N-(4-(3-((6-fluoropyridin-2-yl)methyl)-3-hydroxyazetidine-1-carbonyl)phenyl)quinoline-8-sulfonamide]	0.101 to 1	0.101 to 1	1.01 to 10
O=C(c1ccc(NS(=O)(=O)c2cccc3cccnc23)cc1)N1CC(O)(CCCO)C1 [Compound 40, N-(4-(3-hydroxy-3-(3-hydroxypropyl)azetidine-1-carbonyl)phenyl)quinoline-8-sulfonamide]	1.01 to 10	1.01 to 10	> 10
Cn1c(=O)oc2cc(S(=O)(=O)Nc3ccc(C(=O)N4CC(O)(Cc5ccccc5)C4)cc3)ccc21 [Compound 70]	> 10	> 10	> 10
O=C(c1ccc(NS(=O)(=O)c2cccc3nonc23)cc1)N1CC(O)(Cc2ccccc2)C1 [Compound 69]	> 10	> 10	> 10
O=C(c1ccc(NS(=O)(=O)c2cccc3cccnc23)cc1)N1CC(O)(C2CC2)C1 [Compound 33, N-(4-(3-cyclopropyl-3-hydroxyazetidine-1-carbonyl)phenyl)quinoline-8-sulfonamide]	1.01 to 10	1.01 to 10	> 10
Cc1cccc(CC2(O)CN(C(=O)c3ccc(NS(=O)(=O)c4cccc5cccnc45)cc3)C2)n1 [Compound 56, N-(4-(3-hydroxy-3-((6-methylpyridin-2-yl)methyl)azetidine-1-carbonyl)phenyl)quinoline-8-sulfonamide]	1.01 to 10	0.101 to 1	> 10
CC(C)(C)C1(O)CN(C(=O)c2ccc(NS(=O)(=O)c3cccc4cccnc34)cc2)C1 [Compound 31, N-(4-(3-(tert-butyl)-3-hydroxyazetidine-1-carbonyl)phenyl)quinoline-8-sulfonamide]	1.01 to 10	1.01 to 10	> 10
CCCC1(O)CN(C(=O)c2ccc(NS(=O)(=O)c3cccc4cccnc34)cc2)C1 [Compound 36, N-(4-(3-hydroxy-3-propylazetidine-1-carbonyl)phenyl)quinoline-8-sulfonamide]	0.101 to 1	1.01 to 10	> 10
CC(C)C1(O)CN(C(=O)c2ccc(NS(=O)(=O)c3cccc4cccnc34)cc2)C1 [Compound 32, N-(4-(3-hydroxy-3-isopropylazetidine-1-carbonyl)phenyl)quinoline-8-sulfonamide]	1.01 to 10	1.01 to 10	> 10

Results, then the molecule that gave them:

AC50 (PKR WT) [µM]	AC50 (PKR R532W) [µM]	AC50 (PKR R510Q) [µM]	Compound
0.101 to 1	0.101 to 1	0.101 to 1	O=C(c1ccc(NS(=O)(=O)c2cccc3cccnc23)cc1)N1CC(O)(c2ccccc2C(F)(F)F)C1 [Compound 6, N-(4-(3-hydroxy-3-(2-(trifluoromethyl)phenyl)azetidine-1-carbonyl)phenyl)quinoline-8-sulfonamide]
1.01 to 10	1.01 to 10	1.01 to 10	O=C(c1ccc(NS(=O)(=O)c2cccc3ncccc23)cc1)N1CC(O)(c2cccc(C(F)(F)F)c2)C1 [Compound 44, N-(4-(3-hydroxy-3-(3-(trifluoromethyl)phenyl)azetidine-1-carbonyl)phenyl)quinoline-5-sulfonamide]
> 10	> 10	> 10	O=C(c1ccc(NS(=O)(=O)c2ccc(F)cc2F)cc1)N1CC(O)(c2cccc(C(F)(F)F)c2)C1 [Compound 42, 2,4-difluoro-N-(4-(3-hydroxy-3-(3-(trifluoromethyl)phenyl)azetidine-1-carbonyl)phenyl)benzenesulfonamide]
0.101 to 1	0.101 to 1	1.01 to 10	O=C(c1ccc(NS(=O)(=O)c2cccc3cccnc23)cc1)N1CC(O)(c2cccnc2F)C1 [Compound 18, N-(4-(3-(2-fluoropyridin-3-yl)-3-hydroxyazetidine-1-carbonyl)phenyl)quinoline-8-sulfonamide]
0.101 to 1	0.101 to 1	1.01 to 10	O=C(c1ccc(NS(=O)(=O)c2cccc3cccnc23)cc1)N1CC(O)(c2ccccc2F)C1 [Compound 3, N-(4-(3-(2-fluorophenyl)-3-hydroxyazetidine-1-carbonyl)phenyl)quinoline-8-sulfonamide]
1.01 to 10	1.01 to 10	> 10	O=C(c1ccc(NS(=O)(=O)c2cccc3cnccc23)cc1)N1CC(O)(c2cccc(C(F)(F)F)c2)C1 [Compound 43, N-(4-(3-hydroxy-3-(3-(trifluoromethyl)phenyl)azetidine-1-carbonyl)phenyl)isoquinoline-5-sulfonamide]
0.101 to 1	0.101 to 1	1.01 to 10	O=C(c1ccc(NS(=O)(=O)c2cccc3cccnc23)cc1)N1CC(O)(c2ncccc2F)C1 [Compound 22, N-(4-(3-(3-fluoropyridin-2-yl)-3-hydroxyazetidine-1-carbonyl)phenyl)quinoline-8-sulfonamide]
